From ChEMBL document CHEMBL4002635, “A novel monoterpenoid indole alkaloid with anticancer activity from Melodinus khasianus” (Bioorg Med Chem Lett, 2017)

Tests used:
PC-3 [1] = experiment: Antiproliferative activity against human PC3 cells after 48 hrs by MTT assay; assay type: functional, cell-based; conditions: PC-3, 48 h
PC-3 [2] = experiment: Induction of apoptosis in human PC3 cells assessed as live cells at 10 uM after 24 hrs by Annexin-V FITC/7-AAD staining based flow cytometry (reference value: 98.8%); assay type: functional
PC-3 [3] = experiment: Induction of apoptosis in human PC3 cells assessed as caspase 3A positive cells at 10 uM after 24 hrs by flow cytometry (reference value: 2.45%); assay type: functional
PC-3 [4] = experiment: Induction of apoptosis in human PC3 cells assessed as increase in active caspase 3A after 24 hrs by flow cytometry; assay type: functional, cell-based
PC-3 [5] = experiment: Induction of apoptosis in human PC3 cells assessed as late apoptotic cells at 1 uM after 24 hrs by Annexin-V FITC/7-AAD staining based flow cytometry (reference value: 0.31%); assay type: functional
PC-3 [6] = experiment: Induction of apoptosis in human PC3 cells assessed as caspase 3A negative cells at 1 uM after 24 hrs by flow cytometry (reference value: 97.5%); assay type: functional
PC-3 [7] = experiment: Induction of apoptosis in human PC3 cells assessed as necrotic cells at 1 uM after 24 hrs by Annexin-V FITC/7-AAD staining based flow cytometry (reference value: 0.02%); assay type: functional
PC-3 [8] = experiment: Induction of apoptosis in human PC3 cells assessed as live cells at 1 uM after 24 hrs by Annexin-V FITC/7-AAD staining based flow cytometry (reference value: 98.8%); assay type: functional
PC-3 [9] = experiment: Induction of apoptosis in human PC3 cells assessed as live cells at 0.1 uM after 24 hrs by Annexin-V FITC/7-AAD staining based flow cytometry (reference value: 98.8%); assay type: functional
PC-3 [10] = experiment: Induction of apoptosis in human PC3 cells assessed as necrotic cells at 0.1 uM after 24 hrs by Annexin-V FITC/7-AAD staining based flow cytometry (reference value: 0.02%); assay type: functional
PC-3 [11] = experiment: Induction of apoptosis in human PC3 cells assessed as caspase 3A positive cells at 1 uM after 24 hrs by flow cytometry (reference value: 2.45%); assay type: functional
PC-3 [12] = experiment: Induction of apoptosis in human PC3 cells assessed as increase in p53 protein expression after 48 hrs by Western blot method; assay type: functional, cell-based
PC-3 [13] = experiment: Induction of apoptosis in human PC3 cells assessed as increase in caspase-3 protein expression after 48 hrs by Western blot method; assay type: functional, cell-based
PC-3 [14] = experiment: Induction of apoptosis in human PC3 cells assessed as downregulation of Bcl2 protein expression after 48 hrs by Western blot method; assay type: functional, cell-based
PC-3 [15] = experiment: Induction of apoptosis in human PC3 cells assessed as caspase 3A negative cells at 10 uM after 24 hrs by flow cytometry (reference value: 97.5%); assay type: functional
MDA-MB-231 = experiment: Antiproliferative activity against human MDA-MB-231 cells after 48 hrs by MTT assay; assay type: functional, cell-based; conditions: MDA-MB-231, 48 h
PC-3 [16] = experiment: Induction of apoptosis in human PC3 cells assessed as early apoptotic cells at 10 uM after 24 hrs by Annexin-V FITC/7-AAD staining based flow cytometry (reference value: 0.1%); assay type: functional
PC-3 [17] = experiment: Induction of apoptosis in human PC3 cells assessed as early apoptotic cells at 0.1 uM after 24 hrs by Annexin-V FITC/7-AAD staining based flow cytometry (reference value: 0.1%); assay type: functional
PC-3 [18] = experiment: Induction of apoptosis in human PC3 cells assessed as caspase 3A positive cells at 0.1 uM after 24 hrs by flow cytometry (reference value: 2.45%); assay type: functional
PC-3 [19] = experiment: Induction of apoptosis in human PC3 cells assessed as necrotic cells at 10 uM after 24 hrs by Annexin-V FITC/7-AAD staining based flow cytometry (reference value: 0.02%); assay type: functional
PC-3 [20] = experiment: Induction of apoptosis in human PC3 cells assessed as late apoptotic cells at 0.1 uM after 24 hrs by Annexin-V FITC/7-AAD staining based flow cytometry (reference value: 0.31%); assay type: functional
PC-3 [21] = experiment: Induction of apoptosis in human PC3 cells assessed as caspase 3A negative cells at 0.1 uM after 24 hrs by flow cytometry (reference value: 97.5%); assay type: functional
PC-3 [22] = experiment: Induction of apoptosis in human PC3 cells assessed as early apoptotic cells at 1 uM after 24 hrs by Annexin-V FITC/7-AAD staining based flow cytometry (reference value: 0.1%); assay type: functional
K562 = experiment: Antiproliferative activity against human K562 cells after 48 hrs by MTT assay; assay type: functional, cell-based; conditions: K562, 48 h
PC-3 [23] = experiment: Induction of apoptosis in human PC3 cells assessed as late apoptotic cells at 10 uM after 24 hrs by Annexin-V FITC/7-AAD staining based flow cytometry (reference value: 0.31%); assay type: functional
A549 = experiment: Antiproliferative activity against human A549 cells after 48 hrs by MTT assay; assay type: functional, cell-based; conditions: A549, 48 h

Compound `C/C=C(/CO)[C@H]1C[C@@H]2c3[nH]c4ccccc4c3C[C@H]3N2C(=O)[C@@]13COC` has an IC50 (PC-3 [1]) of 740 nM, an Activity (PC-3 [2]) of 79.7% and an Activity (PC-3 [3]) of 10.9%. The Activity (PC-3 [4]) was “Dose-dependent effect”, the Activity (PC-3 [5]) was 1.14% and the Activity (PC-3 [6]) was 95.9%. The Activity (PC-3 [7]) was 0.87%, the Activity (PC-3 [8]) was 97.3% and the Activity (PC-3 [9]) was 98.3%. For the same compound, the Activity (PC-3 [10]) was 0.85%, the Activity (PC-3 [11]) was 4.1% and the Activity (PC-3 [12]) was “Dose-dependent effect”. The Activity (PC-3 [13]) was “Dose-dependent effect”, the Activity (PC-3 [14]) was “Dose-dependent effect” and the Activity (PC-3 [15]) was 89.1%. It also gave an IC50 (MDA-MB-231) of 1840 nM, an Activity (PC-3 [16]) of 6.25% and an Activity (PC-3 [17]) of 0.27%. For the same compound, the Activity (PC-3 [18]) was 2.89%, the Activity (PC-3 [19]) was 5.05% and the Activity (PC-3 [20]) was 0.56%. The Activity (PC-3 [21]) was 97.1%, the Activity (PC-3 [22]) was 0.7% and the IC50 (K562) was 1220 nM. It also gave an Activity (PC-3 [23]) of 8.97% and an IC50 (A549) of 3.26 µM.
